# Data published in publication PMC4774972, “Activity and Predicted Nephrotoxicity of Synthetic Antibiotics Based on Polymyxin B” (Journal of Medicinal Chemistry, 2016).
# Like-named read-outs stand apart in the source and are kept apart here. Bridge positions count the residues as written; N and C are the ends. Square brackets hold non-standard residues; d marks the D form. Peptide text beside a SMILES is read from it. * marks the point of attachment. hSer = N[C@@H](CCO)C(=O)O; Octanoyl = CCCCCCCC(=O)*; Dab = NCC[C@H](N)C(=O)O
# What was measured:
# K. pneumoniae ATCC 13883 [1] = details: MIC K. pneumoniae ATCC 13883 (µg/mL)
# [2] = system: P. aeruginosa FADDI-PA070, PmxR; details: MIC P. aeruginosa FADDI-PA070, PmxR (µg/mL)
# [3] = system: A. baumannii CI Ptyela 100734512:2, PmxR; details: MIC A. baumannii CI Ptyela 100734512:2, PmxR (µg/mL)
# [4] = system: K. pneumoniae CI Koprana 100650661:1, PmxR; details: MIC K. pneumoniae CI Koprana 100650661:1, PmxR (µg/mL)
# [5] = system: K. pneumoniae CI 138-16357-20362, PmxR; details: MIC K. pneumoniae CI 138-16357-20362, PmxR (µg/mL)
# [6] = system: P. aeruginosa PA9704, PmxR; details: MIC P. aeruginosa PA9704, PmxR (µg/mL)
# [7] = system: S. aureus ATCC 25923, MSSA; details: MIC S. aureus ATCC 25923, MSSA (µg/mL)
# HepG2 = details: CC50 HepG2 (µM)
# [8] = system: K. pneumoniae CI Koprana 100650661:1, PmxR; test: microbe, parasite or virus in culture; assay type: cell-based, Klebsiella pneumoniae
# [9] = system: K. pneumoniae CI 138-16357-20362, PmxR; test: microbe, parasite or virus in culture; assay type: cell-based, Klebsiella pneumoniae
# [10] = system: panel of predominantly G-ve bacteria
# [11] = system: P. aeruginosa FADDI-PA070, PmxR; assay type: cell-based, Pseudomonas aeruginosa
# Description: (§1) Bacteria were either obtained from American Type Culture Collection (ATCC; Manassas, VA, USA) or independent academic clinical isolate collections, as listed in Table S2. Bacteria were cultured in nutrient broth (NB; Bacto Laboratories, catalog no. 234000) or Muller Hinton broth (MHB; Bacto Laboratories, catalog no. 211443) at 37 °C overnight with shaking (∼180 rpm). A sample of each culture was then diluted 50-fold in fresh MHB and incubated at 37 °C for 1.5–3 h with shaking (∼180 rpm). Compound stock solutions were prepared as 0.64 or 2.56 mg/mL in water. The compounds, at twice the final desired concentration, were serially diluted 2-fold across the wells of 96-well plates (Polystyrene, Corning, catalogue No. 3370). Mid log phase bacterial cultures (after 1.5–3 h incubation) were diluted to a final concentration of 5 × 10^5 colony forming units (CFU)/mL, and 50 μL was added to each well giving a final compound concentration range of 32 μg/mL to 0.015 μg/mL (128–0.06 μg/mL for colistin and polymyxin B against the polymyxin resistant clinical isolates). MICs were determined visually after 18 h of incubation at 37 °C, with the MIC defined as the lowest compound concentration at which no bacterial growth was visible.
# (§2) Table S2. Bacterial strains used for Minimum Inhibitory Concentration (MIC) […]
# (§3) Organism Strain Strain description Strain Source
# (§4) Escherichia coli ATCC 25922 FDA strain Seattle 1946 ATCC
# (§5) Klebsiella pneumoniae ATCC 13883 Control strain ATCC
# (§6) Klebsiella pneumoniae ATCC 700603 Multi-drug resistant ATCC
# (§7) Klebsiella pneumoniae BAA-2146 Metallo-beta-lactamase- ATCC
# (§8) Acinetobacter baumannii ATCC 19606 Type strain ATCC
# (§9) Pseudomonas aeruginosa ATCC 27853 Type strain ATCC
# (§10) Pseudomonas aeruginosa FADDI-PA070 Clinical isolate, Nation and Li labs, polymyxin resistant Monash University
# (§11) Clinical isolate, Wang Hengzhuang, Pseudomonas aeruginosa PA9704 polymyxin resistant University Hospital of […]
# (§12) Ptyela Clinical isolate, Ilias Karaiskos and Acinetobacter baumannii Carbapenem & Helen Giamarellou
# (§13) Clinical isolate, Medicine, Hygeia
# (§14) Klebsiella pneumoniae Koprana Carbapenem, & General Hospital, […]
# (§15) Clinical isolate, (Instituto Dante […]
# (§16) polymyxin resistant Cardiologia, São […]
# [12] = system: P. aeruginosa PA9704, PmxR; assay type: cell-based, Pseudomonas aeruginosa
# Description: as §1, §2, §3, §4, §5, §6, §7, §8, §9, §10, §11, §12, §13, §14, §15, §16
# P. aeruginosa ATCC 27853 = test: microbe, parasite or virus in culture; assay type: cell-based, Pseudomonas aeruginosa; details: MHB, 5 × 10^5 CFU/mL, read visually after 18 h at 37 °C
# Description: as §1, §2, §3, §4, §5, §6, §7, §8, §9, §10, §11, §12, §13, §14, §15, §16
# [13] = system: K. pneumoniae ATCC 700603, MDR; assay type: cell-based, Klebsiella pneumoniae; details: MHB, 5 × 10^5 CFU/mL, read visually after 18 h at 37 °C
# Description: as §1, §2, §3, §4, §5, §6, §7, §8, §9, §10, §11, §12, §13, §14, §15, §16
# [14] = system: K. pneumoniae ATTC BAA-2146, NDM-1 pos; assay type: cell-based, Klebsiella pneumoniae; details: MHB, 5 × 10^5 CFU/mL, read visually after 18 h at 37 °C
# Description: as §1, §2, §3, §4, §5, §6, §7, §8, §9, §10, §11, §12, §13, §14, §15, §16
# [15] = system: primary human renal proximal tubule epithelial (hPT) cells; test: Nephrotoxicity assay, GGT release; assay type: cell-based
# Excerpt: (§17) Primary human renal proximal tubule epithelial (hPT) cells were isolated and used for in vitro prediction of drug-induced nephrotoxicity[63],[64],[69] by measuring the release of metabolism enzymes, LDH and GGT, as previously described.[70]
# A. baumannii ATCC 19606 = assay type: cell-based, Acinetobacter baumannii; details: MHB, 5 × 10^5 CFU/mL, read visually after 18 h at 37 °C
# Description: as §1, §2, §3, §4, §5, §6, §7, §8, §9, §10, §11, §12, §13, §14, §15, §16
# HEK293 cells = test: Cytotoxicity assay (resazurin assay); assay type: cell-based, human; details: 4000 cells/well, 24 h incubation with compound, fluorescence 560/590
# HepG2 cells = test: Cytotoxicity assay (resazurin assay); assay type: cell-based, human; details: 4000 cells/well, 24 h incubation with compound, fluorescence 560/590
# [16] = system: A. baumannii CI Ptyela 100734512:2, PmxR; test: microbe, parasite or virus in culture; assay type: cell-based, Acinetobacter baumannii
# K. pneumoniae ATCC 13883 [17] = test: microbe, parasite or virus in culture; assay type: cell-based, Klebsiella pneumoniae; details: MHB, 5 × 10^5 CFU/mL, read visually after 18 h at 37 °C
# [18] = system: primary human renal proximal tubule epithelial (hPT) cells; test: Nephrotoxicity assay, LDH release; assay type: cell-based; details: primary human kidney cells
# Excerpt: as §17
# [19] = system: S. aureus ATCC 25923, MSSA; test: microbe, parasite or virus in culture; assay type: cell-based, Staphylococcus aureus
# [20] = carbapenem & polymyxin resistant clinical isolate, MHB, 5 × 10^5 CFU/mL, 18 h at 37 °C
# [21] = polymyxin resistant clinical isolate, MHB, 5 × 10^5 CFU/mL, 18 h at 37 °C
compound,measurement,setting,value
CCCCCCCC(=O)N[C@@H](CCN)C(=O)N[C@H](C(=O)N[C@@H](CCN)C(=O)N[C@H]1CCNC(=O)[C@H]([C@@H](C)O)NC(=O)[C@H](CCN)NC(=O)[C@H](CCO)NC(=O)[C@H](CC(C)C)NC(=O)[C@@H](Cc2ccccc2)NC(=O)[C@H](CCN)NC1=O)[C@@H](C)O [Compound 24] (Octanoyl-[Dab]T[Dab][Dab][Dab][dF]L[hSer][Dab]T; lactam 4-C),MIC,K. pneumoniae ATCC 13883 [1],> 32 µg/mL
same,MIC,[2],> 32 µg/mL
same,MIC,[3],> 32 µg/mL
same,MIC,[4],> 32 µg/mL
same,MIC,[5],> 32 µg/mL
same,MIC,[6],> 32 µg/mL
same,MIC,[7],> 32 µg/mL
same,CC50,HepG2,> 300 µM
same,"MIC K. pneumoniae CI Koprana 100650661:1, PmxR",[8]; [20],>32 µg/mL
same,"MIC K. pneumoniae CI 138-16357-20362, PmxR",[9]; [20],>32 µg/mL
same,MIC for most strains,[10],1 to 8 µg/mL
"CC[C@H](C)CCCCC(=O)N[C@@H](CCN)C(=O)N[C@H](C(=O)N[C@@H](CCN)C(=O)N[C@H]1CCNC(=O)[C@H]([C@@H](C)O)NC(=O)[C@H](CCN)NC(=O)[C@H](CCN)NC(=O)[C@H](CC(C)C)NC(=O)[C@@H](Cc2ccccc2)NC(=O)[C@H](CCN)NC1=O)[C@@H](C)O [Polymyxin B 1, polymyxin B]","MIC P. aeruginosa FADDI-PA070, PmxR",[11]; [21],32 µg/mL
same,"MIC P. aeruginosa PA9704, PmxR",[12]; [21],128 µg/mL
same,MIC P. aeruginosa ATCC 27853,P. aeruginosa ATCC 27853,0.5 µg/mL
same,"MIC K. pneumoniae ATCC 700603, MDR",[13],0.5 µg/mL
same,"MIC K. pneumoniae ATTC BAA-2146, NDM-1 pos",[14],0.25 µg/mL
same,GGT release CC50,[15]; primary human kidney cells,177 µg/mL
same,MIC A. baumannii ATCC 19606,A. baumannii ATCC 19606,0.25 µg/mL
same,HEK293 CC50,HEK293 cells,>300 µM
same,HepG2 - CC50,HepG2 cells,>300 µM
same,"MIC A. baumannii CI Ptyela 100734512:2, PmxR",[16]; [20],64 µg/mL
same,MIC K. pneumoniae ATCC 13883,K. pneumoniae ATCC 13883 [17],1 µg/mL
same,"MIC K. pneumoniae CI Koprana 100650661:1, PmxR",[8]; [20],64 µg/mL
same,"MIC K. pneumoniae CI 138-16357-20362, PmxR",[9]; [20],64 µg/mL
same,LDH release CC50,[18],23 µg/mL
same,"MIC S. aureus ATCC 25923, MSSA","[19]; MHB, 5 × 10^5 CFU/mL, read visually after 18 h at 37 °C",>64 µg/mL
CCCCCCCC(=O)N[C@@H](CCN)C(=O)N[C@H](C(=O)NCC(=O)N[C@H]1CCNC(=O)[C@H]([C@@H](C)O)NC(=O)[C@H](CCN)NC(=O)[C@H](CCN)NC(=O)[C@H](CC(C)C)NC(=O)[C@@H](Cc2ccccc2)NC(=O)[C@H](CCN)NC1=O)[C@@H](C)O [Compound 38] (Octanoyl-[Dab]TG[Dab][Dab][dF]L[Dab][Dab]T; lactam 4-C),"MIC P. aeruginosa FADDI-PA070, PmxR","[11]; FADDI-PA070, PmxR, 18 h",>32 µg/mL
same,"MIC P. aeruginosa PA9704, PmxR","[12]; PA9704, PmxR, 18 h",>32 µg/mL
same,GGT release CC50,[15],>128 µg/mL
same,HepG2 - CC50,HepG2 cells,> 300 µM
same,MIC,[2],> 32 µg/mL
same,MIC,[3],> 32 µg/mL
same,MIC,[4],> 32 µg/mL
same,MIC,[5],> 32 µg/mL
same,MIC,[6],> 32 µg/mL
same,MIC,[7],> 64 µg/mL
same,"MIC A. baumannii CI Ptyela 100734512:2, PmxR","[16]; CI Ptyela 100734512:2, PmxR, 18 h",>32 µg/mL
same,CC50,HepG2,> 300 µM
same,"MIC K. pneumoniae CI Koprana 100650661:1, PmxR","[8]; CI Koprana 100650661:1, PmxR, 18 h",>32 µg/mL
same,"MIC K. pneumoniae CI 138-16357-20362, PmxR","[9]; CI 138-16357-20362, PmxR, 18 h",>32 µg/mL
same,"MIC S. aureus ATCC 25923, MSSA","[19]; ATCC 25923, 18 h",>64 µg/mL
same,MIC among the reference strains,[10]; for most strains,0.5 to 2 µg/mL
